Reference: US8962656B2, “CCR2 antagonists” (Boehringer Ingelheim International GmbH, priority 2010, dated 2015)

Biological target: T1, CCR2 (Homo sapiens, UniProt P41597)
T1 construct: Membranes were prepared from THP-1 cells; endogenous in cells; host or cells: THP-1 (human acute monocytic leukaemia cells), membrane preparation
Assay: CCR2 receptor membrane binding assay ([125I]MCP-1, THP-1 membranes, SPA beads)
Details: THP-1 cell membranes, [125I]MCP-1 displacement, bound radioactivity after 8 h; read-out: hKi
Method: The above exemplary substances have been tested for binding to CCR2 using a binding assay as outlined herein below:
THP-1 cells (human acute monocytic leukaemia cells) were cultured under standardized conditions at 37° C. and 5% CO2 in a humidified incubator. THP-1 cells were cultivated in RPMI 1640 medium (Gibco 21875) containing 1% MEM-NEAA (Gibco 11140) 2 mM L-glutamine, 1.5 g/L sodium bicarbonate, 4.5 g/L glucose, 10 mM HEPES and 1.0 mM sodium pyruvate, 90%; 10% fetal calf serum (FCS Gibco 10500-064). Membranes were prepared from THP-1 cells. THP-1 cells were centrifuged at 300×g at 4° C. for 10 min. The cell pellet was resuspendet in Phosphate Buffer Saline (PBS, including 10 μM Pefabloc and a protease inhibitor mix ‘complete’, Boehringer Mannheim (1 tablet/50 ml)), to a concentration of […]. The membrane preparation was performed by disrupting the cells by nitrogen […] (at 50 bar, for 1 h) in a “Nitrogen Bombe” (Parr Instrument). Cell debris was removed by centrifugation (800×g at 4° C., 1 min). The supernatant was centrifuged at 80000×g, 4° C. for 30 min to sediment the cell membranes. Usually 50 mg of protein (Bradford assay) were yielded from 1×10E9 cells. The membranes were resuspendet in 25 mM HEPES, 25 mM MgCl2, 1 mM CaCl2, 10% Glycerine for storage in aliquots at −80° C. in 25 mM HEPES, 25 mM MgCl2, 1 mM CaCl2, 10% Glycerine and stored at −80° C.
Perkin Elmer NEX 332 Jod 125 MCP-1, Stock: 2200 Ci/mmol solved in 2000 μl assay buffer, stored at −20° C. THP-1 membrane were adjusted with 25 mM HEPES, pH 7.2; 5 mM MgCl2; 0.5 mM CaCl2; 0.2% BSA assay buffer to a concentration of 2.5 μg/15 Amersham Biosciences PVT-WGA Beads (RPNQ0001) were adjusted with assay buffer to a concentration of 0.24 mg/30 μl. For preparation of the membrane-bead-suspension membranes and beads were incubated for 30 min at RT under rotation (60 rpm) with a ratio of 1:2. Test compounds dissolved in 100% DMSO to a concentration of 10 mM and are further diluted with 100% DMSO to 1 mM. All additional compound dilutions were obtained with assay buffer, final 1% DMSO. Compounds, membrane-bead-suspension and [125I]MCP-1 (ca. 25000 cpm/10 μl) were incubated. Bound radioactivity was determined by scintillation counter after 8 h. Determination of affinity of test compounds (dissociation constant hKi) is calculated by iterative fitting of experimental data using the “easy sys” program, which is based on law of mass action (Schittkowski K. (1994), Numerische Mathematik, Vol. 68, 129-142).

T1 sequence (P41597 whole entry): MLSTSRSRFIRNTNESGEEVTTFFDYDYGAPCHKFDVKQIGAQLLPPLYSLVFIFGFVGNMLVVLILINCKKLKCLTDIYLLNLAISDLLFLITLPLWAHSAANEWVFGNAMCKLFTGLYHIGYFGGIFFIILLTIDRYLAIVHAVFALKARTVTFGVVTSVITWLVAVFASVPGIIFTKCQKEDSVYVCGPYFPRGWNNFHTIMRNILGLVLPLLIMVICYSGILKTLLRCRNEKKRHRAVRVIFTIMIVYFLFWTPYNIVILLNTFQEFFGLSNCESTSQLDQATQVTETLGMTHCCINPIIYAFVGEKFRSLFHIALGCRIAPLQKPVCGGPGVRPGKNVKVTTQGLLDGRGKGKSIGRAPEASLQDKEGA

Ki [µM]	Structure (SMILES)
0.594	Cc1c(NCc2ccc(C(C)(C)C)cc2)cncc1C(=O)N1CCC(N2CCC(N(C)S(C)(=O)=O)CC2)CC1 [Example 1]
0.042	Cc1c(NC[C@H]2CCC[C@@H](c3ccccc3)C2)cncc1C(=O)N1CCC(N2CCC(N(C)S(C)(=O)=O)CC2)CC1 [Example 2]
0.006	CO[C@@H]1COCC[C@@H]1NC1CCN(C(=O)c2cncc(NC[C@H]3CCC[C@@H](c4ccc(C)cc4)O3)c2C)CC1 [Example 3]
0.002	CO[C@H]1COCC[C@H]1NC1CCN(C(=O)c2cncc(NC[C@H]3CCC[C@@H](c4ccc(OC(F)(F)F)cc4)O3)c2C)CC1 [Example 4]
0.001	CO[C@@H]1COCC[C@@H]1NC1CCN(C(=O)c2cncc(NC[C@H]3CCC[C@@H](c4ccc(OC(F)(F)F)cc4)O3)c2C)CC1 [Example 5]
0.021	CO[C@H]1COCC[C@H]1NC1CCN(C(=O)c2cncc(NC[C@H]3CCC[C@@H](c4ccc(C)cc4)O3)c2C)CC1 [Example 6]
0.018	CO[C@@H]1COCC[C@@H]1NC1CCN(C(=O)c2cncc(Nc3ccc(Cl)c(Cl)c3)c2C)CC1 [Example 6a]
0.085	CO[C@H]1COCC[C@H]1NC1CCN(C(=O)c2cncc(Nc3ccc(Cl)c(Cl)c3)c2C)CC1 [Example 6b]
0.133	CO[C@@H]1COCC[C@@H]1NC1CCN(C(=O)c2cncc(NCc3ccc(Cl)c(F)c3)c2C)CC1 [Example 6c]
0.072	CO[C@@H]1COCC[C@@H]1NC1CCN(C(=O)c2cncc(NCc3ccc(C(F)(F)F)c(Cl)c3)c2C)CC1 [Example 6d]
0.04	CO[C@H]1COCC[C@H]1NC1CCN(C(=O)c2cncc(NC[C@H]3CCC[C@@H](c4ccc(C(F)(F)F)cc4)O3)c2)CC1 [Example 7]
0.1	O=C(c1cncc(NC[C@H]2CCC[C@@H](c3ccc(C(F)(F)F)cc3)O2)c1)N1CCC(NC2CCOCC2F)CC1 (some centres unmarked) [Example 8]
0.027	CO[C@@H]1COCC[C@@H]1NC1CCN(C(=O)c2cncc(NC[C@H]3CCC[C@@H](c4ccc(C(F)(F)F)cc4)O3)c2)CC1 [Example 9]
0.107	CO[C@@H]1COCC[C@@H]1NC1CCN(C(=O)c2cncc(NC[C@H]3CCC[C@@H](c4ccc(C)cc4)O3)c2)CC1 [Example 10]
